The text below walks through data of US20120083473A1, “TREATMENT OF CONDITIONS BY TOLL-LIKE RECEPTOR MODULATORS” (priority 2010, published 2012).

Data set [1] has as its system murine peritoneal macrophages (PEC). Description: Dose-response of M1 and M2 gene expression in PEC (RT PCR). The format is cell-based, mice. How it is done:
A third group of experiments was performed to investigate the dose-response effects of TMX, its potency as compared to classical inflammatory signals (e.g. LPS) and the activation of selected transcription factors playing an established role in tolerance, as well as in the induction of M1/M2 polarized inflammatory programs. PECs treated for 4 hours or 20 hours with 100 ng/mlof LPS or increased concentrations of TMX or 1V209 were analyzed by RT PCR for the expression of representative M1 (TNFα, IL-12p40) and M2 (IL-10, TGFβ) genes. […] In this experiment, as compared to 1V209, TMX is a lower inducer of M1 genes expression.
(§1) Cell Culture and treatments. Peritoneal exudate cells (PEC) were harvested from mice injected with 1 ml of 3% (w/v) thioglycollate medium (Difco, Detroit, Mich.) 4 days prior to isolation. PECs were incubated in RPMI 1640 medium, containing 10% fetal bovine serum, 2 mM glutamine and 100 U/ml of penicillin-streptomycin. The concentration for the different treatments were as follows: LPS (100 ng/ml) (Lipopolysaccharide from Salmonella Abortus Equi S-form, Alexis), CpG (1 μg/ml), Pam3CSK (2 μg/ml), Poly I:C (10 μg/ml), Loxorubine (100 μM), flagellin (100 ng/ml) IL-1β (20 ng/ml), TNF (20 ng/ml), IL-10 (20 ng/ml) (Peprotech), IFNγ (200 U/ml) (Peprotech). To induce TMX tolerance, cells were incubated in the presence of TMX (10 μM or 1 μM) for 20 hrs, washed and maintained in RPMI medium for 2 hrs and then re-challenged with TMX (10 μM) for 4 hrs. To induce TMX-tolerization (T/M) cells were treated with TMX for 20 hrs, washed and then maintained in medium for additional 6 hours, without TMX re-challenge. To induce M1-activation, cells were incubated in medium for 20 hrs, washed, left in medium for 2 hrs and finally stimulated with TMX (10 μM) for 4 hrs. Control cells (M/M) were cultured in medium for the entire period of the experiment. For gene expression analysis, total RNA was extracted from TMX treated and untreated cells with trizol (Invitrogen), according to the manufacturer's instructions. To analyze cytokines and chemokines production supernatants were collected 24 hrs after the second challenge with TMX.
Real-Time PCR. Total RNA was purified as previously described. Briefly, reverse transcription from 1 μg of RNA was performed using cDNA Archive kit (Applied Biosystem, NJ, USA). Real time PCR was performed using Power Syber Green PCR Master Mix (Applied Biosystem, NJ, USA) and detected by 7900HT Fast Real-Time System (Applied Biosystem, NJ, USA). Data were processed using the SDS2.2.2 software (Applied Biosystem, NJ, USA). Results were normalized to the expression of the housekeeping gene β-actin and then expressed as folds of upregulation, with respect to the control cell population.

Data set [2] can be described thus: Intravenous acute toxicity in mice. The format is in vivo. Conditions: i.v.
Another data set concerns human monocytes (Mo). Description: M1/M2 gene expression in human monocytes (Real-Time PCR). The format is cell-based. The procedure: To evaluate the effects of TMX on human cell activation, monocytes were isolated from buffy coats obtained from four different healthy donors. With respect to macrophage tolerance, cells were treated with Compound 2 (10 microM) up to 20 hours and then re-challenged with agonists/ligands of different TLRs (TLR2, TLR4, TLR5, TLR9, TLR7, etc. . . . ), including the TLR7 unconjugated ligand 1V209 (free pharmacophore) at a concentration of 10 microM.
Cell Culture and treatments. Monocytes (Mo) were obtained from buffycoats collected from healthy donors as previously described (Porta C et al, PNAS 2009). Cells were incubated in RPMI 1640 medium, containing 10% fetal bovine serum, 2 mM glutamine and 100 U/ml of penicillin-streptomycin. The concentrations for the different treatments were as follows: LPS (100 ng/ml) (Lipopolysaccharide from Salmonella Abortus Equi S-form, Alexis), CpG (1 microg/ml), Pam3CSK (2 microg/ml), Poly I:C (10 microg/ml), Loxorubine (100 microM), flagellin (100 ng/ml). To induce TMX tolerance, cells were incubated in the presence of TMX (10 microM) for 20 hrs, washed and maintained in RPMI medium for 2 hrs and then re-challenged with TMX (10 microM) for 4 hrs. To induce TMX-tolerization (T/M) cells were treated with TMX for 20 hrs, washed and then maintained in medium for additional 6 hours, without TMX re-challenge. To induce M1-activation cells were incubated in medium for 20 hrs, washed, left in medium for 2 hrs and finally stimulated with TMX (10 microM) for 4 hrs. Control cells (M/M) were cultured in medium for the entire period of the experiment. For gene expression analysis, total RNA was extracted from TMX treated and untreated cells with trizol (Invitrogen), according to the manufacturer's instructions. To analyze cytokines and chemokines production supernatants were collected 24 hrs after the second challenge with TMX.
Real-Time PCR. Total RNA was purified as previously described. Briefly, reverse transcription from 1 microgram of RNA was performed using a cDNA Archive kit (Applied Biosystem, NJ, USA). Real time PCR was performed using Power Syber Green PCR Master Mix (Applied Biosystem, NJ, USA) and detected by 7900HT Fast Real-Time System (Applied Biosystem, NJ, USA). Data were processed using the SDS2.2.2 software (Applied Biosystem, NJ, USA). Results were normalized to the expression of the housekeeping gene 8-actin and then expressed as folds of upregulation, with respect to the control cell population.
Background: Real-time PCR tracks product formation cycle by cycle.

In data set [3] the test system is murine peritoneal macrophages (PEC). Description: Secretion of M1 and M2 gene products by TMX-tolerant PEC (ELISA). The format is cell-based, mice. How it is done: Based on the results of the gene expression analysis, performed by Real-Time PCR, selected gene products are validated at protein level, either by cytofluorimetry (surface molecules) or ELISA (secreted products).
The secretion of selected M1 and M2 gene products by TMX-tolerant murine peritoneal macrophages (PEC) was evaluated.
as §1, with “To induce M1-activation, cells were incubated in medium for 20 hrs, washed, left in medium for 2 hrs and finally stimulated with TMX (10 μM) for 4 hrs. Control cells (M/M) were cultured in medium for the entire period of the experiment. For gene expression analysis, total RNA was extracted from TMX treated and untreated cells with trizol (Invitrogen), according to the manufacturer's instructions. To analyze cytokines and chemokines production supernatants were collected 24 hrs after the second challenge with TMX.” left out
For orientation: An ELISA detects its analyte on a solid surface through an enzyme-linked reagent.

Take `COCCOc1nc(N)c2nc(O)n(Cc3ccc(C(=O)NCCOCCOCCOCCOCCOCCOCCn4cc(CCC(=O)O)nn4)cc3)c2n1` [Compound 2]: the “most potent dose tested for the induction of both M1 and M2 genes” value in data set [1] (PEC) is 30 µM. For the same compound, the “induction of both M1 and M2 gene expression” value in data set [1] (PECs treated 4 hours or 20 hours with increased concentrations) was “dose-dependent induction”. Also, the “induction of M1 genes expression as compared to 1V209” value in data set [1] (PECs, 4 or 20 hours) is “lower inducer”. Further, the “dose up to which no toxic clinical signs were produced” value in data set [2] is reported as “up to 1000 mg/kg”. Also, in the data set on human monocytes (Mo), the “IL-10 expression in tolerant Mo as compared to activated Mo” value is reported as “inhibited”; the “M1 markers CXCL9, IFNbeta, iNOS and M2 cytokine TGFbeta” value is “No significant modulation”; the “tolerizing and polarizing activity on human cells as compared to murine cells” value is “partial tolerizing and polarizing activity”. Moreover, in the data set with human monocytes (Mo) (10 microM, 20 hours, Mo from 3 out of 4 healthy donors), the “M1 (TNF-alpha, IL-1-beta IL-6, IL-12, CXCL10) gene expression in state of tolerance” value is reported as “low”. Besides, in the data set on human monocytes (Mo) (TMX pretreatment), the “M1 markers TNF-alpha, IL12-p40 IL-1 IL6 CXCL10 and IFNbeta” value is on record as “down-regulated”. For the same compound, in the data set on human monocytes (Mo) (few exceptions (CCL18, CCL22 in single donors)), the “M2 genes CCL17, CCL18, CCL22 in tolerant versus activated Mo” value is on record as “further induced”. Moreover, the “M2 signature chemokines CCL17, CCL18 and CCL22” value with human monocytes (Mo) (presence of TMX compound) is given as “increased”. The “IL-1p and IL-6 in the supernatant of TMX-tolerant macrophages” value in data set [3] (ELISA) was “increased levels”. Further, the “state of tolerance: M1 and M2 cytokines production” value in data set [3] (only 10 microM TMX, ELISA of supernatants) is “low M1 and high M2 cytokines production”.
